According to US20070196407A1, “Alkoxyphenylcarboxylic acid derivatives” (priority 2004, published 2007):
Several values for one entry are separate records, joined by “and”; a condition that tells them apart may be missing. Equal values may be shown once.

Tests used:
[1] = tested on: S. mutans ATCC33402; assay: MIC against oral organisms in the serial dilution test; assay type: cell-based, Streptococcus mutans; conditions: thioglycolate broth, 24 h aerobic with 10% CO2, unit not given, stock solutions in ppm (w/w)
From the text: (§1) Determination of the MIC Against Various Oral Organisms in the Serial Dilution Test
(§2) Medium: Thioglycolate broth with hemin and menadione • Columbia broth with hemin and menadione for P. gingivalis and P. nigrescens
(§3) Dilution medium: The appropriate amount of the substances was pipetted directly onto the medium.
(§4) Test organisms: Actinobacillus actinomycetemcomitans ATCC 43718 • Streptococcus gordonii ATCC 10558 • Streptococcus mutans ATCC 33402 • Actinomyces viscosus ATCC 43146 • Fusobacterium nucleatum subsp. polymorphum ATCC 10953 • Porphyromonas gingivalis ATCC 33277 • Prevotella nigrescens ATCC 33563
(§5) Incubation: 7-10 days at 37° C. anaerobic, or 24 h aerobic with 10% CO2for Streptococci and A. actinomycetemcomitans
(§6) Test solution: Stock solutions of all the test substances in ethanol comprising 1500 ppm (w/w) are used.
(§7) Bacteria are removed from blood agar plates using cotton-wool-tipped sticks and a suitable O.D. is established in the appropriate medium (McFarland 0.5); this solution is used undiluted for F. nucleatum and P. nigrescens and diluted 1:20 for the other strains. 0.1 ml of bacteria culture is added to 2 ml of each of the active substance solutions, and incubation is carried out as described above.

[2] = tested on: P. gingivalis ATCC3277; assay: as above; assay type: cell-based, Porphyromonas gingivalis; conditions: Columbia broth with hemin and menadione, 7-10 days at 37° C. anaerobic, unit not given, stock solutions in ppm (w/w)
From the text: as §1, §2, §3, §4, §5, §6, §7

[3] = tested on: F. nucleatum subsp. polymorphum ATCC10953; assay: as above; assay type: cell-based, Fusobacterium nucleatum subsp. polymorphum; conditions: thioglycolate broth, 7-10 days at 37° C. anaerobic, unit not given, stock solutions in ppm (w/w)
From the text: as §1, §2, §3, §4, §5, §6, §7

[4] = tested on: Actinomyces viscosus ATCC 43146; assay: Substantivity on hydroxyapatite and growth-inhibiting action; assay type: cell-based; conditions: plates pretreated with synthetic saliva, incubated in ethanolic solution comprising 50 and 500 ppm; 24 hours at 37° C.; in comparison with an untreated control (FIGS. 1 and 2)
Description: Principle: apatite plates (dia. 10 mm) are placed in synthetic saliva (Deutsche Zahnärztliche Zeitschrift DZZ May 2002), rinsed in NaCl and then incubated in an ethanolic solution of test substances (II) and (III) comprising 50 and 500 ppm. The plates are then introduced into a Nunclon Surface titre plate (12 wells) and incubated for 24 hours at 37° C. in Caso nutrient medium which has been inoculated with Actinomyces viscosus ATCC 43146 (about 10^5/ml).

[5] = tested on: A. viscosus ATCC43146; assay: MIC against oral organisms in the serial dilution test; assay type: cell-based, Actinomyces viscosus; conditions: thioglycolate broth, 7-10 days at 37° C. anaerobic, unit not given, stock solutions in ppm (w/w)
From the text: as §1, §2, §3, §4, §5, §6, §7

[6] = tested on: Pseudomonas aeruginosa ATCC 15442; assay: MIC in the agar incorporation test; assay type: cell-based; conditions: 24 hours at 37° C., unit not given, method gives agar concentrations in ppm
Description: (§8) Test solution: 1% stock solutions of all the test substances are prepared in a suitable solvent and diluted in serial dilutions as far as possible so that final concentrations of from 500 ppm to 10 ppm are obtained in the agar. Test principle: 0.3 ml of the particular dilution stage is mixed with 15 ml of still liquid nutrient medium. After solidification of the nutrient base, 10 μl of the test strains in a suitable organism dilution in 0.85% NaCl solution are applied point-wise to the agar medium: [table]

[7] = tested on: Staphylococcus epidermidis ATCC 12228; assay: MIC in the agar incorporation test; assay type: cell-based; conditions: unit not given, method gives agar concentrations in ppm
Description: as §8

[8] = tested on: Aspergillus niger ATCC 6275; assay: MIC in the agar incorporation test; assay type: cell-based; conditions: Sabouraud 4% glucose agar, 3 days at 28° C., unit not given, method gives agar concentrations in ppm
Description: as §8

[9] = tested on: Escherichia coli NCTC 8196; assay: MIC in the agar incorporation test; assay type: cell-based; conditions: 24 hours at 37° C., unit not given, method gives agar concentrations in ppm
Description: as §8

[10] = tested on: Propionibacterium acnes ATCC 6919; assay: MIC in the agar incorporation test; assay type: cell-based; conditions: unit not given, method gives agar concentrations in ppm
Description: as §8

[11] = tested on: Salmonella choleraesuis ATCC 9184; assay: MIC in the agar incorporation test; assay type: cell-based; conditions: unit not given, method gives agar concentrations in ppm
Description: as §8

[12] = tested on: Escherichia coli ATCC 10536; assay: MIC in the agar incorporation test; assay type: cell-based; conditions: 24 hours at 37° C., unit not given, method gives agar concentrations in ppm
Description: as §8

[13] = tested on: Proteus vulgaris ATCC 6896; assay: MIC in the agar incorporation test; assay type: cell-based; conditions: unit not given, method gives agar concentrations in ppm
Description: as §8

[14] = tested on: Corynebacterium minutissimum ATCC 23348; assay: MIC in the agar incorporation test; assay type: cell-based; conditions: unit not given, method gives agar concentrations in ppm
Description: as §8

[15] = tested on: Staphylococcus aureus ATCC 9144; assay: MIC in the agar incorporation test; assay type: cell-based; conditions: 24 hours at 37° C., unit not given, method gives agar concentrations in ppm
Description: as §8

[16] = tested on: Candida albicans ATCC 10231; assay: MIC in the agar incorporation test; assay type: cell-based; conditions: Sabouraud 4% glucose agar, 3 days at 28° C., unit not given, method gives agar concentrations in ppm
Description: as §8

[17] = tested on: Klebsiella pneumoniae ATCC 4352; assay: MIC in the agar incorporation test; assay type: cell-based; conditions: unit not given, method gives agar concentrations in ppm
Description: as §8

[18] = tested on: Staphylococcus aureus ATCC 6538; assay: MIC in the agar incorporation test; assay type: cell-based; conditions: 24 hours at 37° C., unit not given, method gives agar concentrations in ppm
Description: as §8

[19] = tested on: P. nigrescens ATCC33563; assay: MIC against oral organisms in the serial dilution test; assay type: cell-based, Prevotella nigrescens; conditions: Columbia broth with hemin and menadione, 7-10 days at 37° C. anaerobic, unit not given, stock solutions in ppm (w/w)
From the text: as §1, §2, §3, §4, §5, §6, §7

[20] = tested on: biofilm of a defined mixed culture of gram+ and gram− oral organisms and a yeast (Candida albicans) on hydroxyapatite discs; assay: Activity in the biofilm model (in vitro supragingival plaque); assay type: cell-based; conditions: 0.5% substance (II) in mouthwash formulation
From the text: Test of the Activity of 2-dodecyloxy-benzoic Acid (II) in the Biofilm Model
Principle: see Guggenheim et a/. (2001), “Validation of an in vitro biofilm model of supragingival plaque”, J. Dent Res. 80 (1)
Hydroxyapatite discs are pretreated with human saliva and a biofilm of a defined mixed culture of various gram+ and gram− oral organisms (Streptococci, Actinomyces sp., Veillonella & Fusobacterium sp. & others) and a yeast (Candida albicans) are allowed to grow on the hydroxyapatite. During the test period of 4 days, the discs are immersed, several times in all, in the below given application formulation of the substance (II),
and at the end the biofilm is harvested and the number of living cells is determined.

[21] = tested on: S. gordonii ATCC10558; assay: MIC against oral organisms in the serial dilution test; assay type: cell-based, Streptococcus gordonii; conditions: thioglycolate broth, 24 h aerobic with 10% CO2, unit not given, stock solutions in ppm (w/w)
From the text: as §1, §2, §3, §4, §5, §6, §7

[22] = tested on: A. actinomycetemcomitans ATCC43718; assay: as above; assay type: cell-based, Actinobacillus actinomycetemcomitans; conditions: thioglycolate broth, 24 h aerobic with 10% CO2, unit not given, stock solutions in ppm (w/w)
From the text: as §1, §2, §3, §4, §5, §6, §7

SMILES	MIC [1]	MIC [2]	MIC [3]	growth of Actinomyces viscosus after adsorption of the substance onto hydroxyapatite plates [4]	MIC [5]	Minimum Inhibitory Concentration (MIC) [6]	Minimum Inhibitory Concentration (MIC) [7]	Minimum Inhibitory Concentration (MIC) [8]	Minimum Inhibitory Concentration (MIC) [9]	Minimum Inhibitory Concentration (MIC) [10]	Minimum Inhibitory Concentration (MIC) [11]	Minimum Inhibitory Concentration (MIC) [12]	Minimum Inhibitory Concentration (MIC) [13]	Minimum Inhibitory Concentration (MIC) [14]	Minimum Inhibitory Concentration (MIC) [15]	Minimum Inhibitory Concentration (MIC) [16]	Minimum Inhibitory Concentration (MIC) [17]	Minimum Inhibitory Concentration (MIC) [18]	MIC [19]	MIC [21]	further results
CCCCCCCCCCCCOc1ccccc1C(=O)O [II, 2-dodecyloxy-benzoic acid]	7.5	7.5	>15	inhibition of the growth	1.88	>500	15.63	>500	>500	15.63	>500	>500	>500	15.63	31.25	>500	>500	31.25	>15	15	number of living cells of the harvested biofilm (mean values) ([20]; discs immersed several times during 4 days, two independent tests): 1.2 × 10^5 CFU/disc and 1.7 × 10^5 CFU/disc; microbial count of the biofilm on the hydroxyapatite discs compared with the placebo formulation ([20]; test period of 4 days): marked reduction; MIC [22]: >15
CCCCCCCCCCCCCCCCOc1cc(C(=O)O)cc(C(=O)O)c1 [III, 5-hexadecyloxy-isophthalic acid]	3.75	≦0.94	>15	inhibition of the growth	1.88	>48	12	>48	>48	12	>48	>48	>48	24	24	>48	>48	24	>15	≦0.94	MIC [22]: 15
